# Source: patent US5650550A, “Mutant mice having a deficit of functional estrogen receptors” (The United States of America as represented by the …, priority 1995, dated 1997)
# Tested on: adult female mice (uterus, vagina)
# Test: Estrogen responsiveness bioassay in adult females (uterine wet weight, hyperemia, vaginal epithelial cytology)
# Type: in vivo, mouse
# Settings: for vaginal histology: after estradiol treatment; for increase in uterine wet weight: treated for three days, compared to untreated control
compound,measurement,setting,value
C[C@]12CC[C@@H]3c4ccc(O)cc4CC[C@H]3[C@@H]1CC[C@@H]2O [estradiol],vaginal histology,ER disrupted animals,unaltered
same,uterine water imbibition or uterine hyperemia,"ER disrupted animals, treatment for 4-6 hours",no uterine water imbibition or uterine hyperemia
same,increase in uterine wet weight,heterozygous animals,3-4 fold
same,increase in uterine weight or hyperemia,"homozygous ER disrupted animals, three day bioassay",did not respond
same,uterine hyperemia,"wild type and heterozygotes, three day bioassay",became hyperemic
same,vaginal histology,wild type and heterozygous animals,increase in number of cornified epithelial cells
same,increase in uterine wet weight,wild type animals,3-4 fold
